One may read the AUC(0-t) as the area under the concentration-time curve up to a stated or last time point. One may read the Cmax as the maximum level reached in the sampled fluid or tissue. One may read the Tmax as the time at which the peak concentration occurs.

The values below come from patent US20230048888A1, “USE OF TRIAZOLOTRIAZINE DERIVATIVE IN TREATMENT OF DISEASES” (ZHEJIANG VIMGREEN PHARMACEUTICALS, LTD., priority 2019, published 2023).

For data set [1], the system named is MPTP-induced Parkinson's disease. As to the kind of experiment: MPTP-induced mouse Parkinson's disease model, open field test. In kind it is in vivo, C57BL/6 mice. As to conditions: open field 10 minutes. The source says: By injecting the substantia nigra selective toxin MPTP, the mitochondria were intervened to induce lipid peroxidation for disturbing the membrane structure and affecting cell function, and finally the substantia nigra dopaminergic (DA) neurons were selectively destroyed, leading to the massive death of substantia nigra DA neurons, the massive loss of striatum tyrosine hydroxylase-positive fibers, and the significant decrease in the levels of striatum DA and its metabolites 3,4-dihydroxyphenylacetic acid and homovanillic acid. There are also the hyperplasia of the substantia nigra striatal microglia and astrocytes and the damage of locus coeruleus, hypothalamus and other areas, which are basically the same as those in patients with Parkinson's disease. The ameliorative effect of a test substance on the stiffness symptom of Parkinson's disease induced by MPTP in mice was evaluated.
C57BL/6 male mice of 8 weeks old were selected. The 8-week-old C57 mice were intraperitoneally (i.p.) injected with a vehicle dissolved in saline (normal saline) or MPTP (30 mg/kg body weight) for 5 days to induce the Parkinson's disease.
At 0.5 hours after the last MPTP injection, two doses (10 mpk and 30 mpk) were administered by intragastric administration.
At 1.5 hours after the last MPTP injection, an open field test (total travel distance and number of standings) was performed for 10 minutes.

Another data set has as its system A20 tumor cells. Nature of the data set: A20 murine lymphoma (B lymphocytes) homotransplantation model. The settings on record: for TGI (%): 50 mg/kg p.o. QD. The class given is in vivo, BALB/c mice. Here is the method:
A20 murine lymphoma (B lymphocyte) homotransplantation model is a classic pharmaceutical effect evaluation model for B lymphocyte cancer. It was constructed by subcutaneously inoculating homogeneous A20 tumor cells into the right ribs of female BALB/c mice by the same species. The test compounds were administrated to evaluate their inhibitory effects on tumor growth in the model.
A20 tumor cells were cultured in an RPMI 1640 medium containing inactivated 10% fetal bovine serum, 100 U/ml penicillin, 100 μg/ml streptomycin and 0.05 mM 2-mercaptoethanol in an incubator at 37° C. in the presence of 5% CO2; and after the cells grew all over, the tumor cells were divided and passaged in respective flasks every 3 to 4 days. The tumor cells in the logarithmic growth phase were used for in vivo inoculation of tumors.
The A20 tumor cells resuspended in a serum-free RPMI 1640 culture solution were inoculated subcutaneously at 3×10^5/100 μl to the right ribs of experimental animals. A total of 30 animals were inoculated. On the first day after tumor cell inoculation, 24 animals with a uniform body weight were selected in terms of body weight, and were grouped for dosage, with 12 animals in each group. The specific dosage regimen was carried out according to the experimental design.
Tumor volume: the tumor volume was measured 3 times a week with a vernier caliper, and the long and short diameters of the tumor were measured. The volume was calculated with a formula as follows:
volume=0.5×long diameter×short diameter^2.
Tumor growth inhibition rate (TGI, %)=(1−T/C)×100,
T/C(%)=(average tumor volume of treatment groups on the current day-average tumor volume of treatment groups on the initial day D0)/(average tumor volume of the control group on the current day-average tumor volume of the control group on the initial day D0)×100.
Statistical analysis of tumor volume was carried out between groups by the SPSS T-test.

The test system of the next data set is CT26 cells. Nature of the data set: CT26 murine colon cancer homotransplantation model. In kind it is in vivo, BALB/c mice. Here is the method: The CT26 murine colon cancer homotransplantation model is a classic pharmaceutical effect evaluation model for colon cancer. It is constructed by subcutaneously inoculating CT26 to BALB/c mice. The test compounds were administrated to evaluate their inhibitory effects on tumor growth in the model.
CT26 cells were cultured in an RPMI1640 culture solution containing 10% fetal bovine serum. The CT26 cells in the exponential growth phase were collected and resuspended in PBS to a suitable concentration for subcutaneous tumor inoculation in mice.
Female mice were subcutaneously inoculated with 5×10^5 CT26 cells on the right side. The day of inoculation was defined as Day 0. On the second day (Day 1) of […] cell inoculation, the mice were administered randomly according to body weight.
Tumor proliferation rate, T/C %, was a percentage ratio of tumor volume or tumor weight between the treatment group and the control group at a certain time point. It was calculated with a formula was as follows:
T/C %=TTV/CTV×100% (TTV (TTV: the average TV of the treatment group at a specific time point;

The nature of data set [2]: Stability of acetate crystal at 60° C. closed and 40° C./75% RH open, HPLC purity and XRPD. The class given is physicochemical. The settings on record: for XPRD (crystal form after storage): 7 days; for Purity over 7 days (area %): initial purity 98.79 area %. On the procedure:
A certain amount of acetate crystal was held at 60° C. in a closed condition and at 40° C./75% RH in an open condition for a maximum of 7 days. Samples were taken on days 0, 3, and 7 and diluted with a diluent to about 0.3 mg/mL for HPLC purity testing. The solid samples were tested by XRPD to determine the crystal form.

Data set [3] can be described thus: Pharmacokinetics of Compound 40 and benzene sulfonate thereof in ICR mice, PO. The settings on record: mouse, in vivo, PO 100 mg/kg (based on free base), 40% Hp-β-CD.

`Nc1nc(NCCc2ccc(NC3COC3)cc2)nc2nc(-c3ccco3)nn12` [Compound 22, 2-(furan-2-yl)-N5-(4-(oxetan-3-ylamino)phenethyl)-[1,2,4]triazolo[1,5-a][1,3,5]triazine-5,7-diamine]: the “Moving distance (cm)” value came to 647.0 cm in data set [1] (10 mg/kg p.o. once) and 1107.3 cm in data set [1] (30 mg/kg p.o. once). Also, the results for the Number of standings in data set [1] (10 mg/kg p.o. once) and in data set [1] (30 mg/kg p.o. once) were 18.3 and 31.0, respectively. Moreover, the “Clinical abnormalities during the dosage” value in the data set with A20 tumor cells (50 mg/kg p.o. QD 24 days) and in the data set with CT26 cells (p.o. QD × 25 days) was “no obvious clinical abnormalities were observed” in each case. The “TGI (%)” value in the data set on A20 tumor cells (Day 6 after tumor inoculation) was 11.9%; with A20 tumor cells (Day 8), 8.4%; in the data set on A20 tumor cells (Day 10), 7.0%; with A20 tumor cells (Day 13), 16.5%; in the data set on A20 tumor cells (Day 15) it was 29.4%; with A20 tumor cells (Day 17) it was 32.6%. Further, the “TGI (%)” value in the data set with A20 tumor cells (Day 20) turned out to be 28.5%; in the data set on A20 tumor cells (Day 22), 36.4%; with A20 tumor cells (Day 24) it was 35.6%; with CT26 cells (Day 26, 100 mg/kg p.o. QD), 19%. Also, the “T/C (%)” value with CT26 cells (Day 26, 100 mg/kg p.o. QD) was found to be 81%. Moreover, the Tumor volume in the data set with CT26 cells (Day 26, 100 mg/kg p.o. QD, in mm³) was found to be 1988.56 ± 325.70.

Consider `CC(=O)O.Nc1nc(NCCc2ccc(NC3COC3)cc2)nc2nc(-c3ccco3)nn12` [Acetate of Compound 22, 2-(furan-2-yl)-N5-(4-(oxetane-3-ylamino)phenethyl)-[1,2,4]triazolo[1,5-a][1,3,5]triazine-5,7-diamine acetate], for which, in data set [2] (40° C./75% RH open), the “XPRD (crystal form after storage)” value is “Transformed” and the “Purity over 7 days (area %)” value came to 98.99 area %. Further, the “Degradation under test conditions” value in data set [2] (60° C. and 40° C./75% RH, up to 7 days) is “no significant degradation”. In addition, in data set [2] (60° C. closed), the “XPRD (crystal form after storage)” value is “Unchanged” and the “Purity over 7 days (area %)” value is 99.01 area %.

For `Cn1nnc(-c2ccc(CCNc3nc(N)n4nc(-c5ccco5)nc4n3)cc2)n1` [Compound 40, N5-(4-(2-methyl-2H-tetrazol-5-yl)phenethyl)-2-(furan-2-yl)-[1,2,4]triazolo[1,5-a][1,3,5]triazine-5,7-diamine], in data set [3], the AUC(0-t) stood at 11900 ng·h/mL, the concentration peaked (Cmax) at 2900 ng/mL and the Tmax was 0.5 h. The AUC(0-inf) in data set [3] (read-out: AUCINF—pred) was 12100 ng·h/mL. Further, in data set [3] (read-out: T½ (converted)), the half-life is 4.27 h.
